# In patent US5656603A (Loyola University of Chicago, priority 1995, dated 1997):
# Tests used:
# [1] = biological target: T1, dipeptidyl-peptidase IV (EC 3.4.14.5) (Bos taurus, UniProt P81425); assay: Specificity of apstatin: dipeptidyl-peptidase IV; type: biochemical; settings: detergent extract of bovine lung; Gly-Pro-β-NA, pH 6.8, FLUO
# T1 construct: Unless otherwise indicated, the source of each enzyme activity was a detergent extract of bovine lung; from tissue; host or cells: detergent extract of bovine lung
# Procedure: (§1) Specificity of Apstatin--Apstatin was assayed for its ability to inhibit several other peptidases. […] Unless otherwise indicated, the source of each enzyme activity was a detergent extract of bovine lung prepared as described in (12-13). Activities were determined by a modification of the fluorescent assay described above (indicated by "FLUO") or by HPLC separation and quantitation of reaction products using the method described in (12) (method "HPLC-1") or the method described below (method "HPLC-2"). […]
# [2] = biological target: T2, angiotensin converting enzyme (EC 3.4.15.1) (Bos taurus, UniProt P12820); assay: Specificity of apstatin: angiotensin converting enzyme; type: biochemical; settings: detergent extract of bovine lung; Hip-His-Leu, pH 6.5, HPLC-1
# T2 construct: Unless otherwise indicated, the source of each enzyme activity was a detergent extract of bovine lung; from tissue; host or cells: detergent extract of bovine lung
# T2 sequence (P12820 29-1306): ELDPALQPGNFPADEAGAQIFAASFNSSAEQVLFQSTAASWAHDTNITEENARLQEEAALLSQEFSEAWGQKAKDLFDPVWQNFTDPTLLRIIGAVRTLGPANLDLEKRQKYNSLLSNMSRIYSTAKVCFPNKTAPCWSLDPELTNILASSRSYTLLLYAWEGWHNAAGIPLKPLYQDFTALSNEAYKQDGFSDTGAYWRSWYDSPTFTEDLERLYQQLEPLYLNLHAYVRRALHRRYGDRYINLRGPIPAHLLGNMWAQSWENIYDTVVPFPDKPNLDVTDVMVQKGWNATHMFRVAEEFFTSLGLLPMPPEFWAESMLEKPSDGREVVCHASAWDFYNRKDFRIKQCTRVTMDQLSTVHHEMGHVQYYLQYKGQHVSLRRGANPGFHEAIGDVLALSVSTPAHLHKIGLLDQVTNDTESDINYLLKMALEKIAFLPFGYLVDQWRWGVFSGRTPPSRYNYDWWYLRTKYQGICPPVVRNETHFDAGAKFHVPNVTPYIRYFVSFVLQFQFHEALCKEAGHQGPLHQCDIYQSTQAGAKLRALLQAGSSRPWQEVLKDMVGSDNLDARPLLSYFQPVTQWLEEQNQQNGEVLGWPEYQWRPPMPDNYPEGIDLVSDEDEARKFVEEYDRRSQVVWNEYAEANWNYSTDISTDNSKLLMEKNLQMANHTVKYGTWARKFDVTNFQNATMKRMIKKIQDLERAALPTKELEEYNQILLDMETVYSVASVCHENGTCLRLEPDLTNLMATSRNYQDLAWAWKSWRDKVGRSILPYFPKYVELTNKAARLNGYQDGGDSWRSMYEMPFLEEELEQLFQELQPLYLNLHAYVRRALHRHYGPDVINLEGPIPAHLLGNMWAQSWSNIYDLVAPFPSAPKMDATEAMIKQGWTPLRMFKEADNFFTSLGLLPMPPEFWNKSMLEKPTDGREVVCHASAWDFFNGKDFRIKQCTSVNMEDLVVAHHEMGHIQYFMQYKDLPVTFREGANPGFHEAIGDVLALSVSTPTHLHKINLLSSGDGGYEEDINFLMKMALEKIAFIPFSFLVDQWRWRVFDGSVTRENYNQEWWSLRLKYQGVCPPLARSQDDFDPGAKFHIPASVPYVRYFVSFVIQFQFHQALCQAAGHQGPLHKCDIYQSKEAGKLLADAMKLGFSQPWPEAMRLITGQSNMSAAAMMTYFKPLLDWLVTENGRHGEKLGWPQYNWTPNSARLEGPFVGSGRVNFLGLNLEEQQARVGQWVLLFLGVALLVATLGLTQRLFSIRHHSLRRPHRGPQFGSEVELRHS
# Procedure: as §1
# endopeptidase 24.15 = biological target: T3, endopeptidase 24.15 (Rattus norvegicus, UniProt P24155); assay: Specificity of apstatin: endopeptidase 24.15; type: biochemical; settings: rat brain synaptosomes; Bk(2-9), pH 6.8, HPLC-1
# T3 construct: endopeptidase 24.15 (EC 3.4.24.15) (rat brain synaptosomes); from tissue; host or cells: rat brain synaptosomes
# Procedure: as §1
# [3] = tested on: blood pressure response to Bk; assay: Blood pressure response to intravenous bradykinin in the rat; type: in vivo; settings: rats; intravenously, administered over a one hour period
# Procedure: While aminopeptidase P appears to be quantitatively less important than ACE, there is now evidence that aminopeptidase P is nevertheless a physiologically important regulator of the blood pressure response to Bk in the rat (15,41). […] Thus, aminopeptidase P appears to play a significant role in the pulmonary degradation of Bk.
# See e.g., Table 2. […] A typical therapeutically effective dose of a compound of the present invention is from about 0.008 mg/kg to 8.0 mg/kg, when given intravenously.
# T1 sequence (P81425 whole entry): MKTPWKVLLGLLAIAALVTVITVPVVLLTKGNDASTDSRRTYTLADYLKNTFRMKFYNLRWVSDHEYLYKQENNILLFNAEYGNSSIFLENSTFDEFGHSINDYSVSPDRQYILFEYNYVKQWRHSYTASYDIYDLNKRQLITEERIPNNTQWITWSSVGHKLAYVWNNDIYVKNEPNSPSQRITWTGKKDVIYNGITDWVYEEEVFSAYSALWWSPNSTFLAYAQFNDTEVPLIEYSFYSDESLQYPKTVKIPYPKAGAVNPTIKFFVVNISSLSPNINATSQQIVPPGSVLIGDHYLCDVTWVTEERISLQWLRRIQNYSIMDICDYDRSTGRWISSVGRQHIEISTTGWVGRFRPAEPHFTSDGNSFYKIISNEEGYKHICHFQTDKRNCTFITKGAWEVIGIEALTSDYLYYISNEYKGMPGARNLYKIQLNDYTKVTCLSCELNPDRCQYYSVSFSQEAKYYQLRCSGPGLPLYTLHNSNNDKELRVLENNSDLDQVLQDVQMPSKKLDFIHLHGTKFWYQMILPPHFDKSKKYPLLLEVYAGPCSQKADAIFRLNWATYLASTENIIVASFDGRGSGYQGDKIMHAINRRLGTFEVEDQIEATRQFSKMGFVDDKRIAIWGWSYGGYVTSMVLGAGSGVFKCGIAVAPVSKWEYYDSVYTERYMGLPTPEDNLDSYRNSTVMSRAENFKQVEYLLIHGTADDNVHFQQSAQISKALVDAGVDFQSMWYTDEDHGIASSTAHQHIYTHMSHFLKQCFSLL
# T3 sequence (P24155 whole entry): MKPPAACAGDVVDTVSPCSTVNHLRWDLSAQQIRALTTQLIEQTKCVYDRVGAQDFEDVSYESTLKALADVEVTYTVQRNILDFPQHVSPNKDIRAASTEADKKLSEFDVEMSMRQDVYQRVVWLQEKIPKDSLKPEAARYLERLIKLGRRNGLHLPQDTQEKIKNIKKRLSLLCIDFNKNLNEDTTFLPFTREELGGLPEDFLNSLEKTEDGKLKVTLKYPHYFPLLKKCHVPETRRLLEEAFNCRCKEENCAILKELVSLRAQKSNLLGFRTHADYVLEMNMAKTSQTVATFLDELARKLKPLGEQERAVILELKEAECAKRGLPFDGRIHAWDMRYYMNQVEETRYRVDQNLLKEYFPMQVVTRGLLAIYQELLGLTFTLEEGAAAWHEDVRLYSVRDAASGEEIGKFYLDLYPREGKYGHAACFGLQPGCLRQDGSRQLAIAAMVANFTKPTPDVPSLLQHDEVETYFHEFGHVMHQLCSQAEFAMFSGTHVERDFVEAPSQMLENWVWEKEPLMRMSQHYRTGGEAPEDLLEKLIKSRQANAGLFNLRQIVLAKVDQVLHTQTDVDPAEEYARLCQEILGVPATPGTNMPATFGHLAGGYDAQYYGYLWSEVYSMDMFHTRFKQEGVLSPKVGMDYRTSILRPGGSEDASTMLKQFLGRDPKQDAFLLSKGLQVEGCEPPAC
smiles,measurement,setting,value
"C[C@H](NC(=O)[C@@H]1CCCN1C(=O)[C@@H]1CCCN1C(=O)[C@@H](O)[C@H](N)Cc1ccccc1)C(N)=O [apstatin, N-[(2S, 3R)-3-amino-2-hydroxy-4-phenylbutanoyl]-L-prolyl-L-prolyl-Lalaninamide]",IC50,[1],1100 µM
same,IC50,[2],> 800 µM
same,IC50,endopeptidase 24.15,> 800 µM
same,dose at which Bk potentiation has been observed,[3],0.08 to 0.8 mg/kg
